Data as given in ChEMBL document CHEMBL2401737 (J Med Chem, 2013).
In brackets after ≈: the same amount, converted by molar mass.

Legend:
[1] = Half life in human hepatocytes; format: ADME, cell-based, Hepatocyte
[2] = Half life in rat hepatocytes; format: ADME, cell-based, Hepatocyte
[3] = Half life in monkey S9 fraction; format: ADME, Macaca mulatta; conditions: rhesus monkey
[4] = Half life in human S9 fraction; format: ADME
[5] = Half life in rat S9 fraction; format: ADME
[6] = Half life in dog S9 fraction; format: ADME, Canis lupus familiaris
[7] = Solubility of the compound in simulated gastrointestinal fluid; format: physicochemical
[8] = Lipophilicity, log D of the compound at pH 7.4 by chromatographic analysis; format: physicochemical; conditions: buffer
[9] = Ratio of plasma concentration in rat to IC90 for pseudo Human immunodeficiency virus; format: ADME, cell-free
[10] = Apparent permeability in MDCK cells; format: ADME, cell-based, Canis lupus familiaris; conditions: dog
[11] = Plasma concentration in rat at 5 mg/kg, po after 24 hrs; format: ADME, organism-based; parameters: dose 5 mg/kg, route oral
[12] = Oral bioavailability in cynomolgus monkey at 5 mg/kg administered as capsule by LC-MS/MS analysis; format: ADME, organism-based, Macaca fascicularis; conditions: in vivo
[13] = Oral bioavailability in Beagle dog at 5 mg/kg administered as capsule by LC-MS/MS analysis; format: ADME, organism-based, Canis lupus familiaris; conditions: in vivo
[14] = Volume of distribution at steady state in cynomolgus monkey at 1 mg/kg, iv and 5 mg/kg, po administered as capsule by LC-MS/MS analysis; format: ADME, organism-based, Macaca fascicularis; conditions: in vivo, read-out: Vdss
[15] = Volume of distribution at steady state in Beagle dog at 1 mg/kg, iv and 5 mg/kg, po administered as capsule by LC-MS/MS analysis; format: ADME, organism-based, Canis lupus familiaris; conditions: in vivo, read-out: Vdss
[16] = Half life in cynomolgus monkey at 1 mg/kg, iv and 5 mg/kg, po administered as capsule by LC-MS/MS analysis; format: ADME, organism-based, Macaca fascicularis; conditions: in vivo
[17] = Half life in Beagle dog at 1 mg/kg, iv and 5 mg/kg, po administered as capsule by LC-MS/MS analysis; format: ADME, organism-based, Canis lupus familiaris; conditions: in vivo
[18] = Half life in Sprague-Dawley rat at 1 mg/kg, iv and 5 mg/kg, po administered as capsule by LC-MS/MS analysis; format: ADME, organism-based; conditions: in vivo
[19] = Clearance in Beagle dog at 1 mg/kg, iv and 5 mg/kg, po administered as capsule by LC-MS/MS analysis; format: ADME, organism-based, Canis lupus familiaris; conditions: in vivo
[20] = Clearance in cynomolgus monkey at 1 mg/kg, iv and 5 mg/kg, po administered as capsule by LC-MS/MS analysis; format: ADME, organism-based, Macaca fascicularis; conditions: in vivo
[21] = Fraction unbound in cynomolgus monkey plasma at 1 mg/kg, iv and 5 mg/kg, po administered as capsule by equilibrium dialysis technique; format: ADME, organism-based, Macaca fascicularis
[22] = Fraction unbound in Beagle dog plasma at 1 mg/kg, iv and 5 mg/kg, po administered as capsule by equilibrium dialysis technique; format: ADME, organism-based, Canis lupus familiaris
[23] = Fraction unbound in Sprague-Dawley rat plasma at 1 mg/kg, iv and 5 mg/kg, po administered as capsule by equilibrium dialysis technique; format: ADME, organism-based
[24] = Fraction unbound in human plasma; format: ADME, cell-free
[25] = test system: Human immunodeficiency virus 1; assay: Antiviral activity against Human immunodeficiency virus 1 3B infected in human MT4 cells after 4 to 5 days by bioluminescence assay in presence of human serum relative to control; format: functional
[26] = test system: Human immunodeficiency virus 1; assay: Antiviral activity against Human immunodeficiency virus 1 3B infected in human MT4 cells after 4 to 5 days by bioluminescence assay; format: functional, organism-based
[27] = test system: Human immunodeficiency virus 1; assay: Antiviral activity against Human immunodeficiency virus 1 Ba-L infected human PBMC after 7 days by [methyl-3H]dTTP incorporation assay; format: functional, organism-based; conditions: 168 h
[28] = target: Human immunodeficiency virus type 1 integrase (Human immunodeficiency virus 1, UniProt Q7ZJM1); assay: Inhibition of HIV-1 integrase strand transfer activity using [3H]-DNA as substrate preincubated for 60 mins prior to substrate addition measured after 25 to 45 mins
Human immunodeficiency virus type 1 integrase, sequence (Q7ZJM1 whole entry): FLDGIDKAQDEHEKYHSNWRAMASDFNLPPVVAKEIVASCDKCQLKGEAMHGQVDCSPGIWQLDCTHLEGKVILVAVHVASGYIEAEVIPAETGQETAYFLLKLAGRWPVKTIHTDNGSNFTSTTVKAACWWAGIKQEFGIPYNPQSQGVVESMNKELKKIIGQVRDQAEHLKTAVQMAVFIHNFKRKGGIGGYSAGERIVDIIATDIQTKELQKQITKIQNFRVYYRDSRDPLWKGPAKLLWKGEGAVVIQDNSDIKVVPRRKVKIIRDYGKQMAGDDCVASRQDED

[29] = test system: Human immunodeficiency virus; assay: Ratio of IC50 for pseudo Human immunodeficiency virus to IC50 for pseudo Human immunodeficiency virus in presence of human serum albumin; format: functional
[30] = test system: Human immunodeficiency virus; assay: Antiviral activity against Human immunodeficiency virus harboring integrase Q148K mutant infected in human HeLa cells expressing CD4 after 2 days by beta galactosidase assay relative to wild type HIV; format: functional
[31] = test system: Human immunodeficiency virus; assay: Antiviral activity against pseudo Human immunodeficiency virus infected in HEK293T cells after 2 days in presence of human serum albumin; format: functional, organism-based; conditions: Human immunodeficiency virus 1, HEK-293T, 48 h
[32] = test system: Human immunodeficiency virus; assay: Antiviral activity against pseudo Human immunodeficiency virus infected in HEK293T cells after 2 days; format: functional, organism-based; conditions: Human immunodeficiency virus 1, HEK-293T, 48 h
[33] = Oral bioavailability in cynomolgus monkey at 5 mg/kg administered as suspension by LC-MS/MS analysis; format: ADME, organism-based, Macaca fascicularis; conditions: in vivo
[34] = Oral bioavailability in Beagle dog at 5 mg/kg administered as suspension by LC-MS/MS analysis; format: ADME, organism-based, Canis lupus familiaris; conditions: in vivo
[35] = Oral bioavailability in Sprague-Dawley rat at 5 mg/kg administered as suspension by LC-MS/MS analysis; format: ADME, organism-based; conditions: in vivo
[36] = Volume of distribution at steady state in cynomolgus monkey at 1 mg/kg, iv and 5 mg/kg, po administered as suspension by LC-MS/MS analysis; format: ADME, organism-based, Macaca fascicularis; conditions: in vivo, read-out: Vdss
[37] = Volume of distribution at steady state in Beagle dog at 1 mg/kg, iv and 5 mg/kg, po administered as suspension by LC-MS/MS analysis; format: ADME, organism-based, Canis lupus familiaris; conditions: in vivo, read-out: Vdss
[38] = Volume of distribution at steady state in Sprague-Dawley rat at 1 mg/kg, iv and 5 mg/kg, po administered as suspension by LC-MS/MS analysis; format: ADME, organism-based; conditions: in vivo, read-out: Vdss
[39] = Half life in Beagle dog at 1 mg/kg, iv and 5 mg/kg, po administered as suspension by LC-MS/MS analysis; format: ADME, organism-based, Canis lupus familiaris; conditions: in vivo
[40] = Half life in cynomolgus monkey at 1 mg/kg, iv and 5 mg/kg, po administered as suspension by LC-MS/MS analysis; format: ADME, organism-based, Macaca fascicularis; conditions: in vivo
[41] = Half life in Sprague-Dawley rat at 1 mg/kg, iv and 5 mg/kg, po administered as suspension by LC-MS/MS analysis; format: ADME, organism-based; conditions: in vivo
[42] = Clearance in Beagle dog at 1 mg/kg, iv and 5 mg/kg, po administered as suspension by LC-MS/MS analysis; format: ADME, organism-based, Canis lupus familiaris; conditions: in vivo
[43] = Clearance in cynomolgus monkey at 1 mg/kg, iv and 5 mg/kg, po administered as suspension by LC-MS/MS analysis; format: ADME, organism-based, Macaca fascicularis; conditions: in vivo
[44] = Clearance in Sprague-Dawley rat at 1 mg/kg, iv and 5 mg/kg, po administered as suspension by LC-MS/MS analysis; format: ADME, organism-based; conditions: in vivo
[45] = Fraction unbound in cynomolgus monkey plasma at 1 mg/kg, iv and 5 mg/kg, po administered as suspension by equilibrium dialysis technique; format: ADME, organism-based, Macaca fascicularis
[46] = Fraction unbound in Beagle dog plasma at 1 mg/kg, iv and 5 mg/kg, po administered as suspension by equilibrium dialysis technique; format: ADME, organism-based, Canis lupus familiaris
[47] = Fraction unbound in Sprague-Dawley rat plasma at 1 mg/kg, iv and 5 mg/kg, po administered as suspension by equilibrium dialysis technique; format: ADME, organism-based

C[C@H]1CO[C@@H]2Cn3cc(C(=O)NCc4ccc(F)cc4F)c(=O)c(O)c3C(=O)N12 [CABOTEGRAVIR]
half-life [1]: > 3.67 h | half-life [2]: > 3.67 h | half-life [3]: > 3 h | half-life [4]: > 3 h | half-life [5]: > 3 h | half-life [6]: > 3 h | solubility [7]: 42 µg/mL (≈ 104 µM) | chromatographic logD [8]: 3.49 | Ratio [9]: 0.9 | Papp [10]: 42.5 ×10⁻⁶ cm/s | concentration at 24 h [11]: 9590 ng/mL | bioavailability [12]: 6.2% | bioavailability [13]: 8% | Vd [14]: 0.09 L/kg | Vd [15]: 0.14 L/kg | half-life [16]: 4 h | half-life [17]: 5.7 h | half-life [18]: > 18 h | clearance [19]: 0.34 mL/min/kg | clearance [20]: 0.32 mL/min/kg | fraction unbound [21]: 0.003 | fraction unbound [22]: 0.007 | fraction unbound [23]: < 0.001 | fraction unbound [24]: 0.004 | fold change (FC) [25]: 408 | IC50 [26]: 1.3 nM | IC50 [27]: 0.2 nM | IC50 [28]: 3 nM | Ratio IC50 [29]: 60 | fold change (FC) [30]: 3.9 | IC50 [31]: 30 nM | IC90 [31]: 0.0491 µg/mL | IC50 [32]: 0.5 nM

C[C@@H]1CCO[C@H]2Cn3cc(C(=O)NCc4ccc(F)cc4F)c(=O)c([O-])c3C(=O)N12.[Na+] [DOLUTEGRAVIR SODIUM]
half-life [1]: > 3.67 h | half-life [2]: > 3.67 h | half-life [3]: > 3 h | half-life [4]: > 3 h | half-life [5]: > 3 h | half-life [6]: > 3 h | solubility [7]: 130 µg/mL | chromatographic logD [8]: 3.67 | Papp [10]: 58.5 ×10⁻⁶ cm/s | concentration at 24 h [11]: 908 ng/mL | bioavailability [33]: 25% | bioavailability [34]: 35% | bioavailability [35]: 34% | Vd [36]: 0.3 L/kg | Vd [37]: 0.3 L/kg | Vd [38]: 0.1 L/kg | half-life [39]: 5.2 h | half-life [40]: 6 h | half-life [41]: 6.2 h | clearance [42]: 2.2 mL/min/kg | clearance [43]: 2.1 mL/min/kg | clearance [44]: 0.23 mL/min/kg | fraction unbound [24]: 0.007 | fraction unbound [45]: 0.009 | fraction unbound [46]: 0.046 | fraction unbound [47]: 0.001
